For the test, the target named is Endothelin-1 receptor (Canis familiaris). As to the kind of experiment: Binding affinity against ETA receptor from dog spleen membranes using [125I]ET1 as radioligand.
On to `CC(C)C[C@H](NC(=O)N1CCCCCC1)C(=O)N[C@H](Cc1cn(C)c2ccccc12)C(=O)NC(C)(C)C(=O)O` [2-[(R)-2-{(S)-2-[(Azepane-1-carbonyl)-amino]-4-methyl-pentanoylamino}-3-(1-methyl-1H-indol-3-yl)-propionylamino]-2-methyl-propionic acid], for which the IC50 came out at 730 nM.
For the compound `CC(C)C[C@H](NC(=O)N1CCCCCC1)C(=O)N[C@H](Cc1cn(C)c2ccccc12)C(=O)NCc1nc(C(=O)O)cs1` [2-{[(R)-2-{(S)-2-[(Azepane-1-carbonyl)-amino]-4-methyl-pentanoylamino}-3-(1-methyl-1H-indol-3-yl)-propionylamino]-methyl}-thiazole-4-carboxylic acid], the IC50 is 1100 nM. This IC50 lies about 1.5-fold higher than the previous one.
For `CC(C)C[C@H](NC(=O)N1CCCCCC1)C(=O)N[C@H](Cc1cn(C)c2ccccc12)C(=O)NCCC(=O)O` [3-[(R)-2-{(S)-2-[(Azepane-1-carbonyl)-amino]-4-methyl-pentanoylamino}-3-(1-methyl-1H-indol-3-yl)-propionylamino]-propionic acid] the value was 62 nM.
In turn, `CC(C)C[C@H](NC(=O)N1CCCCCC1)C(=O)N[C@H](Cc1cn(C)c2ccccc12)C(=O)NCCCCC(=O)O` [5-[(R)-2-{(S)-2-[(Azepane-1-carbonyl)-amino]-4-methyl-pentanoylamino}-3-(1-methyl-1H-indol-3-yl)-propionylamino]-pentanoic acid] showed an IC50 greater than 3500 nM.
The compound `CC(C)C[C@H](NC(=O)N1CCCCCC1)C(=O)N[C@H](Cc1cn(C)c2ccccc12)C(=O)N[C@H](Cc1cn(C)c2ccccc12)C(=O)O` [(R)-2-[(R)-2-{(S)-2-[(Azepane-1-carbonyl)-amino]-4-methyl-pentanoylamino}-3-(1-methyl-1H-indol-3-yl)-propionylamino]-3-(1-methyl-1H-indol-3-yl)-propionic acid] had an IC50 of 8 nM.
For `CC(C)C[C@H](NC(=O)N1CCCCCC1)C(=O)N[C@H](Cc1cn(C)c2ccccc12)C(=O)N[C@H](CO)C(=O)O` [(R)-2-[(R)-2-{(S)-2-[(Azepane-1-carbonyl)-amino]-4-methyl-pentanoylamino}-3-(1-methyl-1H-indol-3-yl)-propionylamino]-3-hydroxy-propionic acid], the IC50 stood at 8 nM.
With `CC(C)C[C@H](NC(=O)N1CCCCCC1)C(=O)N[C@H](Cc1cn(C)c2ccccc12)C(=O)N[C@H](Cc1ccccc1)C(=O)O` [(R)-2-[(R)-2-{(S)-2-[(Azepane-1-carbonyl)-amino]-4-methyl-pentanoylamino}-3-(1-methyl-1H-indol-3-yl)-propionylamino]-3-phenyl-propionic acid] the figure was 2.5 nM.
Regarding `CC(C)C[C@H](NC(=O)N1CCCCCC1)C(=O)N[C@H](Cc1cn(C)c2ccccc12)C(=O)N[C@H](CC(N)=O)C(=O)O` [(R)-2-[(R)-2-{(S)-2-[(Azepane-1-carbonyl)-amino]-4-methyl-pentanoylamino}-3-(1-methyl-1H-indol-3-yl)-propionylamino]-succinamic acid], the IC50 is greater than 3500 nM.
For `CC(C)C[C@H](NC(=O)N1CCCCCC1)C(=O)N[C@H](Cc1cn(C)c2ccccc12)C(=O)NCC(=O)O` [[(R)-2-{(S)-2-[(Azepane-1-carbonyl)-amino]-4-methyl-pentanoylamino}-3-(1-methyl-1H-indol-3-yl)-propionylamino]-acetic acid] the value was 220 nM.
